Data reported in the NIST ThermoML archive (doi:10.1016/j.fluid.2007.03.030).

Columns and labels:
[1] = Liquid; for mass density: 298.15 K, 101.33 kPa; for vapor or sublimation pressure: Ebulliometric method (Recirculating still)
[2] = refractive index (Na D-line) (dimensionless); conditions: 298.15 K; 101.33 kPa; Liquid; Standard Abbe refractometry

CCOCCO [2-ethoxyethan-1-ol]
Conditions	mass density [kg/m3]	refractive index
[1]	925.38	–
[2]	–	1.4062

[1]
Conditions	vapor or sublimation pressure [kPa]
345.63 K	9.97
349.72 K	11.98
353.3 K	13.98
356.42 K	15.98
359.27 K	17.98
363.08 K	20.96
365.34 K	22.97
367.46 K	24.98
370.33 K	27.95
373 K	30.94
375.49 K	33.97
378.51 K	37.93
381.26 K	41.98
383.78 K	45.88
386.12 K	49.91
388.87 K	54.89
391.39 K	59.83
393.83 K	64.82
396.01 K	69.65
398.1 K	74.57
400.12 K	79.47
402.11 K	84.74
403.97 K	89.84
405.76 K	94.91
407.95 K	101.3

CCCO [propan-1-ol]
Conditions	mass density [kg/m3]	refractive index
[1]	799.62	–
[2]	–	1.3836

Conditions	vapor or sublimation pressure [kPa]
[1], 369.75 K	101.3

CCCOCCC [dipropyl ether]
Conditions	mass density [kg/m3]	refractive index
[1]	741.81	–
[2]	–	1.3784

Conditions	vapor or sublimation pressure [kPa]
[1], 363.16 K	101.3
